{"source": "paper PMC3498832", "about": "“Mechanistic and structural basis for inhibition of thymidylate synthase ThyX” (Open Biology, 2012)", "key": {"PBCV-1 ThyX [1]": {"biological_target": "T1, PBCV-1 ThyX (Paramecium bursaria Chlorella virus 1, UniProt O41156)", "T1 construct": "made in house; host or cells: E. coli BL21", "T1 sequence (O41156 whole entry)": "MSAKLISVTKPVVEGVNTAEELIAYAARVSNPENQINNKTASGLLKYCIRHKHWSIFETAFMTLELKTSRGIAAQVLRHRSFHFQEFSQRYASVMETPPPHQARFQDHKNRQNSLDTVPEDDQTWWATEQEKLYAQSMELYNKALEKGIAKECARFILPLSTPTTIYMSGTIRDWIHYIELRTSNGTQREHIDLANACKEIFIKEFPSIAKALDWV", "test": "NADPH oxidation assay of ThyX activity (decrease of A340)", "assay_type": "biochemical, Paramecium bursaria chlorella virus (PBCV-1)"}, "PBCV-1 ThyX [2]": {"biological_target": "T1, PBCV-1 ThyX", "test": "'deprotonation' activity (tritium release assay from [5-3H]dUMP)", "assay_type": "biochemical, Paramecium bursaria chlorella virus (PBCV-1)", "conditions": "compound 20 µM"}, "PBCV-1 ThyX [3]": {"biological_target": "T1, PBCV-1 ThyX", "test": "ThyX assay under anaerobic conditions (NADPH oxidation at 340 nm, FAD reduction at 450 nm)", "assay_type": "biochemical, Paramecium bursaria chlorella virus (PBCV-1)", "conditions": "100 μM dUMP or inhibitor, 400 μM NADPH, 77 μM ThyX bound FAD", "experimental": "ThyX assays (100 μl) under anaerobic conditions contained 77 μM of PBCV-1 ThyX bound FAD in 300 mM NaCl, 1 mM MgCl2, 10 per cent glycerol (m/v) and 50 mM HEPES, pH 8.0. Samples were made anaerobic by repeatedly degassing with argon. Traces of oxygen were removed using the glucose oxidase system (60 units of glucose oxidase and catalase in the presence of 10 mM glucose). Where indicated, 100 μM dUMP, 100 μM inhibitor C8-C1 and 400 μM NADPH were added using an air-tight syringe. NADPH oxidation and FAD reduction were followed spectroscopically (optical path length 1 mm) at 340 and 450 nm, respectively."}, "PBCV-1 ThyX [4]": {"biological_target": "T1, PBCV-1 ThyX", "set-up": "method as in PMID 15471872", "conditions": "cited from earlier work"}, "Thermotoga maritima ThyX": {"system": "Thermotoga maritima ThyX", "conditions": "T. maritima ThyX; no reference given; cited from earlier work"}, "[5]": {"biological_target": "T2, human thymidylate synthase (Homo sapiens, UniProt P04818)", "T2 construct": "made in house; host or cells: E. coli BL21", "T2 sequence (P04818 whole entry)": "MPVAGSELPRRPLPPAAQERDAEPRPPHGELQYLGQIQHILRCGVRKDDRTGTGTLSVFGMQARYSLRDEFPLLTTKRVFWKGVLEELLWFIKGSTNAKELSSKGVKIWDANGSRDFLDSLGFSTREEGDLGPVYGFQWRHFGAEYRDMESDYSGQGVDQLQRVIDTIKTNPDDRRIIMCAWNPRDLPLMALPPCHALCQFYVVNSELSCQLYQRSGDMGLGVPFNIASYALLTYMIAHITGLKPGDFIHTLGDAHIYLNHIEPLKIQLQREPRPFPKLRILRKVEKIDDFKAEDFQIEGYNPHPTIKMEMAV", "test": "Human thymidylate synthase activity", "assay_type": "biochemical", "conditions": "data not shown"}, "H. pylori ThyX": {"biological_target": "T3, H. pylori ThyX (Helicobacter pylori, UniProt O26061)", "T3 construct": "made in house; host or cells: E. coli BL21", "T3 sequence (O26061 1-208)": "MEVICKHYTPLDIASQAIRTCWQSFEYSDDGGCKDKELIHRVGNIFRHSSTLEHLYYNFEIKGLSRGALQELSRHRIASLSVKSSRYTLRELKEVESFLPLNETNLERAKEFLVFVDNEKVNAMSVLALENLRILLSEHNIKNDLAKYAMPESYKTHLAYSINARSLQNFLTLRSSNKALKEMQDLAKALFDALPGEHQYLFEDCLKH", "assay_type": "biochemical"}, "C. trachomatis ThyX": {"system": "C. trachomatis ThyX", "test": "ThyX activity with isolated C. trachomatis ThyX", "assay_type": "biochemical, Chlamydia trachomatis"}, "M. tuberculosis ThyX": {"biological_target": "T4, M. tuberculosis ThyX (Mycobacterium tuberculosis, UniProt P9WG57)", "T4 construct": "made in house; host or cells: E. coli BL21", "T4 sequence (P9WG57 whole entry)": "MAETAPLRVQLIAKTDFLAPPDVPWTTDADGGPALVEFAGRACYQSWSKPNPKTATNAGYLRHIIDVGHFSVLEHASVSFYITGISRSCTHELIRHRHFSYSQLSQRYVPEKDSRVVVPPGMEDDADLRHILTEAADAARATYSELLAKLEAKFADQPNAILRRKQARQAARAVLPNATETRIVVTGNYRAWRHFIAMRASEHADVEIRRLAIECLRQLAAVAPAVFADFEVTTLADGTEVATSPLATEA", "assay_type": "biochemical"}, "[6]": {"system": "E. coli MG1655 (wild-type, thyA+ tdk+)", "test": "Growth inhibition (CFU) of isogenic wild-type E. coli", "conditions": "Escherichia coli, MG1655, 24 h, read-out: growth inhibition", "description": "(§1) Escherichia coli MG1655 (wild-type, thyA^+ tdk^+) and FE010 [ΔthyA::PBCV-1 thyX tdk^+] [26] were grown at 37°C either in thymidine-containing LB medium or thymidine-free M9 minimal medium supplemented with 0.1 mM CaCl2, 2 mM MgSO4 and 0.2 per cent casamino acids (Difco). IPTG-induced overexpression of target protein PBCV-1 ThyX was used to test titration of inhibitor in the bacterial cell. When necessary, thymidine (40 µg ml^−1) and kanamycin (40 µg ml^−1) were added to the growth medium. The cells were then harvested and washed two times with M9 medium to remove the remaining thymidine. The cells were diluted to an OD600 of approximately 0.1 using M9 medium and 1 ml of cell suspension was transferred to 24-well microplates (Nunc). Compounds were dissolved in DMSO and were added at indicated concentrations. No cells and DMSO-only controls were included for each medium composition. The plates were closed with plastic lids and incubated at 37°C with shaking at 160 r.p.m. After 24 h of incubation, 100 µl of 10-fold serial dilutions were plated onto LB plates or LB plates supplemented with kanamycin (40 µg ml^−1) when appropriate. Colonies were enumerated after overnight incubation at 37°C. Colony-forming units (CFU) per millilitre for each growth condition were determined from three independent experiments."}, "[7]": {"system": "E. coli FE010 (ΔthyA::PBCV-1 thyX tdk+)", "test": "Growth inhibition (CFU) of genetically modified E. coli dependent on thyX", "description": "as §1"}, "[8]": {"system": "E. coli FE010 carrying plasmid overexpressing PBCV-1 thyX", "test": "Growth inhibition with IPTG-induced overexpression of PBCV-1 ThyX (selectivity factor, ratio of CFUs)", "description": "Escherichia coli MG1655 (wild-type, thyA^+ tdk^+) and FE010 [ΔthyA::PBCV-1 thyX tdk^+] [26] were grown at 37°C either in thymidine-containing LB medium or thymidine-free M9 minimal medium supplemented with 0.1 mM CaCl2, 2 mM MgSO4 and 0.2 per cent casamino acids (Difco). IPTG-induced overexpression of target protein PBCV-1 ThyX was used to test titration of inhibitor in the bacterial cell. When necessary, thymidine (40 µg ml^−1) and kanamycin (40 µg ml^−1) were added to the growth medium. The cells were then harvested and washed two times with M9 medium to remove the remaining thymidine. The cells were diluted to an OD600 of approximately 0.1 using M9 medium and 1 ml of cell suspension was transferred to 24-well microplates (Nunc). Compounds were dissolved in DMSO and were added at indicated concentrations. No cells and DMSO-only controls were included for each medium composition. The plates were closed with plastic lids and incubated at 37°C with shaking at 160 r.p.m. […] Colony-forming units (CFU) per millilitre for each growth condition were determined from three independent experiments.\nThe values reported are means of three individual experiments. Hundred per cent refers to cell viability, measured as CFU, in the absence of inhibitor. […]"}, "PBCV-1 ThyX [9]": {"biological_target": "T1, PBCV-1 ThyX", "test": "C8-C1 induced quenching of FAD fluorescence", "assay_type": "binding", "conditions": "authors' unpublished data", "description": "We stress that the total PBCV-1 ThyX concentration used in these assays was 10 μM."}, "[10]": {"conditions": "10 µM total PBCV-1 ThyX, 5 µM dUMP, 200 µM NADPH, read-out: IC50 (µM) NADPH oxidation"}}, "note": "Read-outs that look alike come from different tables or passages of the source. Marks after values point to notes of the source that are not given here."}
{"smiles": "O=C(CC1=C(O)C(=O)c2ccccc2C1=O)c1cccs1", "note": "[H3-C1, 2-hydroxy-3-(2-oxo-2-(thiophen-2-yl)ethyl)-1,4-naphthoquinone]", "values": [{"measurement": "IC50", "setting": "PBCV-1 ThyX [1]; [10]", "result": 7, "unit": "µM"}, {"measurement": "inhibition at 20 µM", "setting": "PBCV-1 ThyX [2]", "result": "38 ± 3", "unit": "%"}]}
{"smiles": "COc1ccc(C(=O)CC2=C(O)C(=O)c3ccccc3C2=O)cc1", "note": "[G3-C1, 2-hydroxy-3-(2-(4-methoxyphenyl)-2-oxoethyl)-1,4-naphthoquinone]", "values": [{"measurement": "IC50", "setting": "PBCV-1 ThyX [1]; [10]", "result": 10, "unit": "µM"}, {"measurement": "inhibition at 20 µM", "setting": "PBCV-1 ThyX [2]", "result": "22 ± 7", "unit": "%"}]}
{"smiles": "Cc1ccc(C(=O)CC2=C(O)C(=O)c3ccccc3C2=O)cc1", "note": "[F3-C1, 2-hydroxy-3-(2-oxo-2-p-tolylethyl)-1,4-naphthoquinone]", "values": [{"measurement": "IC50", "setting": "PBCV-1 ThyX [1]; [10]", "result": 7, "unit": "µM"}, {"measurement": "inhibition at 20 µM", "setting": "PBCV-1 ThyX [2]", "result": "38 ± 7", "unit": "%"}]}
{"smiles": "O=C(CC1=C(O)C(=O)c2ccccc2C1=O)c1ccccc1", "note": "[E11-C1, 2-hydroxy-3-(2-oxo-2-phenylethyl)-1,4-naphthoquinone]", "values": [{"measurement": "IC50", "setting": "PBCV-1 ThyX [1]; [10]", "result": 11, "unit": "µM"}, {"measurement": "inhibition at 20 µM", "setting": "PBCV-1 ThyX [2]", "result": "36 ± 5", "unit": "%"}]}
{"smiles": "O=C(O)c1ccccc1NC1=CC(=O)c2c(O)cccc2C1=O", "note": "[B3-C1, 2-(5-hydroxy-1,4-dioxo-1,4-dihydronaphthalen-2-ylamino)benzoic acid]", "values": [{"measurement": "IC50", "setting": "PBCV-1 ThyX [1]; [10]", "result": "> 10", "unit": "µM"}, {"measurement": "inhibition at 20 µM", "setting": "PBCV-1 ThyX [2]", "result": "12 ± 6", "unit": "%"}]}
{"smiles": "O=c1ccn([C@H]2C[C@H](O)[C@@H](COP(=O)(O)O)O2)c(=O)[nH]1", "note": "[dUMP, 2′-deoxyuridine-5′-monophosphate, reference compound]", "values": [{"measurement": "FAD reduction (nmol)", "setting": "PBCV-1 ThyX [3]", "result": "8.9^a nmol"}, {"measurement": "NADPH oxidation", "setting": "PBCV-1 ThyX [3]", "result": 11.3, "unit": "nmol"}, {"measurement": "activating factor of NAD(P)H oxidase activity", "setting": "PBCV-1 ThyX [4]", "result": "> 20"}, {"measurement": "activating factor of NAD(P)H oxidase activity", "setting": "Thermotoga maritima ThyX", "result": "5–7"}]}
{"smiles": "O=C1C=C(Br)C(=O)c2c(O)cccc21", "note": "[2E04, 2-bromo-8-hydroxy-1,4-naphthoquinone]", "values": [{"measurement": "inhibitory effect on human thymidylate synthase", "setting": "[5]", "result": "No inhibitory effect"}, {"measurement": "effect on ThyX activity", "setting": "H. pylori ThyX", "result": "specifically decreased the activity"}, {"measurement": "effect on ThyX activity", "setting": "C. trachomatis ThyX", "result": "specifically decreased the activity"}, {"measurement": "effect on ThyX activity", "setting": "M. tuberculosis ThyX", "result": "specifically decreased the activity"}, {"measurement": "inhibition at 1.5 µg/mL", "setting": "[6]", "result": "10 to 15", "unit": "%"}, {"measurement": "growth inhibition after addition of thymidine to the growth medium", "setting": "[7]; 1.5 μg ml−1, thymidine added", "result": "reversed"}, {"measurement": "inhibition at 1.5 µg/mL", "setting": "[7]; Escherichia coli, 24 h, read-out: inhibition of bacterial growth", "result": "~80", "unit": "%"}, {"measurement": "effect of ThyX overexpression on growth inhibition (selectivity factor)", "setting": "[8]; 1.5 μg ml−1, with vs without IPTG induction", "result": "less-potent growth inhibition"}]}
{"smiles": "COc1ccc(CC2=C(O)C(=O)c3ccccc3C2=O)cc1", "note": "[C8-C1, 2-hydroxy-3-(4-methoxybenzyl)-1,4-naphthoquinone]", "values": [{"measurement": "IC50", "setting": "PBCV-1 ThyX [1]", "result": 4.5, "unit": "µM"}, {"measurement": "inhibition modality with respect to NADPH", "setting": "PBCV-1 ThyX [1]; IC50 plotted against NADPH concentration", "result": "tight-binding uncompetitive inhibition"}, {"measurement": "inhibition modality with respect to dUMP", "setting": "PBCV-1 ThyX [1]; IC50 plotted against dUMP concentration", "result": "tight-binding competitive inhibitor"}, {"measurement": "Ki", "setting": "PBCV-1 ThyX [1]; Ki after correcting for total enzyme and dUMP concentration, competitive with respect to dUMP", "result": 0.46, "unit": "µM"}, {"measurement": "Ki", "setting": "PBCV-1 ThyX [1]; apparent Ki (Morrison equation), with respect to dUMP, uncorrected", "result": 1.5, "unit": "µM"}, {"measurement": "Ki (uncompetitive, NADPH)", "setting": "PBCV-1 ThyX [1]; with respect to NADPH", "result": 4.45, "unit": "µM"}, {"measurement": "inhibition at 20 µM", "setting": "PBCV-1 ThyX [2]", "result": "78 ± 4", "unit": "%"}, {"measurement": "Kd", "setting": "PBCV-1 ThyX [9]", "result": "~0.4", "unit": "µM"}, {"measurement": "FAD reduction (nmol)", "setting": "PBCV-1 ThyX [3]", "result": "0^b nmol"}, {"measurement": "NADPH oxidation", "setting": "PBCV-1 ThyX [3]", "result": 0, "unit": "nmol"}, {"measurement": "effect of ThyX overexpression on growth inhibition (selectivity factor)", "setting": "[8]; 50 μg ml−1, with vs without IPTG induction", "result": "less-potent growth inhibition"}]}
